Our source for the IC50 values is patent US20200016159A1, “N3-CYCLICALLY SUBSTITUTED THIENOURACILS AND USE THEREOF” (Bayer Aktiengesellschaft, priority 2016, published 2020).

The test concerns the target T1, human adenosine A2b receptor (Homo sapiens, UniProt P29275).
T1 sequence (P29275 1-332): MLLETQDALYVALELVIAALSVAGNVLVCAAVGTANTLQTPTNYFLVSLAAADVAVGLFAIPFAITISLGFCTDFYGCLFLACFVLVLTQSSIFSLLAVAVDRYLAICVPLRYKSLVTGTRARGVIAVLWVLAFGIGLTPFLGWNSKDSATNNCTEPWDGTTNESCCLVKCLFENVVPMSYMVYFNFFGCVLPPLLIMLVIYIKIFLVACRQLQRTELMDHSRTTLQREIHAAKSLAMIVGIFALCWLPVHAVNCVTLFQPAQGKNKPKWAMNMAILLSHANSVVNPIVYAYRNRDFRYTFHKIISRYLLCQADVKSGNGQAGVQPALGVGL
Put plainly: Cellular in vitro reporter gene test for A2b receptor activity (antagonism of NECA). It is filed as cell-based. More on the design: expressed in transfected cells; host or cells: CHO-K1 (Chinese hamster ovary) with CRE-luciferase reporter. Particulars: recombinant CHO-K1 cells, CRE-luciferase reporter, co-incubation with EC50 concentration of NECA, 3 hours. Put shortly:
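Antagonism measured as block of NECA-induced, cAMP/CRE-dependent luciferase expression in recombinant A2b CHO-K1 cells. NECA used at the EC50 set in a pre-experiment on each test day; luminescence detected after 3 h. Reported as IC50, partly averaged and rounded to two significant figures.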

For the molecule `COCCn1c(=O)n(C2CC3(CCC3)C2)c(=O)c2c(C)c(CN3CCNC3=NC(=O)OC)sc21` [Example 181, Methyl [1-{[1-(2-methoxyethyl)-5-methyl-2,4-dioxo-3-(spiro[3.3]hept-2-yl)-1,2,3,4-tetrahydrothieno[2,3-d]pyrimidin-6-yl]methyl}imidazolidin-2-ylidene]carbamate], the IC50 was 6.7 nM.
The same measure for `Cc1c(Cn2nc[nH]c2=O)sc2c1c(=O)n(C1(C)CC1)c(=O)n2CC1CC1(F)F` (single isomer, unassigned) [Example 68, 1-[(2,2-Difluorocyclopropyl)methyl]-5-methyl-3-(1-methylcyclopropyl)-6-[(5-oxo-4,5-dihydro-1H-1,2,4-triazol-1-yl)methyl]thieno[2,3-d]pyrimidine-2,4(1H,3H)-dione]: 160 nM; for `COCCn1c(=O)n(C2CC2C(F)(F)F)c(=O)c2c(C)c(CN3CCNC3=O)sc21` (single isomer, unassigned) [Example 296, 1-(2-Methoxyethyl)-5-methyl-6-[(2-oxoimidazolidin-1-yl)methyl]-3-[2-(trifluoromethyl)cyclopropyl]thieno[2,3-d]pyrimidine-2,4(1H,3H)-dione]: 16 nM; for `Cc1c(CN2CCNC2=O)sc2c1c(=O)n([C@H]1C[C@@H]1C)c(=O)n2CC1CC1(F)F` (stereo partly drawn) [Example 249, 1-[(2,2-Difluorocyclopropyl)methyl]-5-methyl-3-[(1S,2S)-2-methylcyclopropyl]-6-[(2-oxoimidazolidin-1-yl)methyl]thieno[2,3-d]pyrimidine-2,4(1H,3H)-dione]: 1.9 nM.
The same measure for `CO[C@H]1C[C@@H](n2c(=O)c3c(C)c(CN4CCNC4=NC#N)sc3n(CCC(F)(F)F)c2=O)C1` [Example 155, [1-{[3-(cis-3-Methoxycyclobutyl)-5-methyl-2,4-dioxo-1-(3,3,3-trifluoropropyl)-1,2,3,4-tetrahydrothieno[2,3-d]pyrimidin-6-yl]methyl}imidazolidin-2-ylidene]cyanamide]: 56 nM; for `COCCn1c(=O)n(C2(C(F)(F)F)CC2)c(=O)c2c(C)c(CN3CCNC3=NC#N)sc21` [Example 86, [1-({1-(2-Methoxy ethyl)-5-methyl-2,4-dioxo-3-[1-(trifluoromethyl)cyclopropyl]-1,2,3,4-tetrahydrothieno[2,3-d]pyrimidin-6-yl}methyl)imidazolidin-2-ylidene]cyanamide]: 270 nM; for `Cc1c(CN2CCNC2=O)sc2c1c(=O)n(C1CC1C)c(=O)n2CC(F)F` (racemic) [Example 234, 1-(2,2-Difluoroethyl)-5-methyl-3-(2-methylcyclopropyl)-6-[(2-oxoimidazolidin-1-yl)methyl]thieno[2,3-d]pyrimidine-2,4(1H,3H)-dione]: 1.9 nM.
The same measure for `Cc1c(Cn2nc[nH]c2=O)sc2c1c(=O)n(C1(C)CC1)c(=O)n2CC1CC1(F)F` (racemic) [Example 66, 1-[(2,2-Difluorocyclopropyl)methyl]-5-methyl-3-(1-methylcyclopropyl)-6-[(5-oxo-4,5-dihydro-1H-1,2,4-triazol-1-yl)methyl]thieno[2,3-d]pyrimidine-2,4(1H,3H)-dione]: 140 nM.
`Cc1c(Cn2cc[nH]c2=O)sc2c1c(=O)n(C1CC1C)c(=O)n2CCOC(F)(F)F` (racemic) [Example 270, 5-Methyl-3-(2-methylcyclopropyl)-6-[(2-oxo-2,3-dihydro-1H-imidazol-1-yl)methyl]-1-[2-(trifluoromethoxy)ethyl]thieno[2,3-d]pyrimidine-2,4(1H,3H)-dione]: the IC50 amounted to 1.5 nM.
In the case of `COCCn1c(=O)n(C2CCCC2)c(=O)c2c(C)c(CN3CCNC3=NC(=O)OC)sc21` [Example 191, Methyl [1-{[3-cyclopentyl-1-(2-methoxyethyl)-5-methyl-2,4-dioxo-1,2,3,4-tetrahydrothieno[2,3-d]pyrimidin-6-yl]methyl}imidazolidin-2-ylidene]carbamate], the IC50 was 18 nM.
The same measure for `Cc1c(CN2CCNC2=NC#N)sc2c1c(=O)n(C1CC(C)(C)C1)c(=O)n2CCC(F)(F)F` [Example 165, [1-{[3-(3,3-Dimethylcyclobutyl)-5-methyl-2,4-dioxo-1-(3,3,3-trifluoropropyl)-1,2,3,4-tetrahydrothieno[2,3-d]pyrimidin-6-yl]methyl}imidazolidin-2-ylidene]cyanamide]: 14 nM; for `COCCn1c(=O)n(C2CCC2)c(=O)c2c(C)c(CN3CCNC3=NC#N)sc21` [Example 116, [1-{[3-Cyclobutyl-1-(2-methoxyethyl)-5-methyl-2,4-dioxo-1,2,3,4-tetrahydrothieno[2,3-d]pyrimidin-6-yl]methyl}imidazolidin-2-ylidene]cyanamide]: 4 nM.
The same measure for `COCCn1c(=O)n(C2CC(C)(C)C2)c(=O)c2c(C)c(Cn3nc[nH]c3=O)sc21` [Example 173, 3-(3,3-Dimethylcyclobutyl)-1-(2-methoxyethyl)-5-methyl-6-[(5-oxo-4,5-dihydro-1H-1,2,4-triazol-1-yl)methyl]thieno[2,3-d]pyrimidine-2,4(1H,3H)-dione]: 83 nM.
Turning to `Cc1c(CN2CCNC2=O)sc2c1c(=O)n(C1(C)CC1)c(=O)n2CCOC(C)C` [Example 79, 1-(2-Isopropoxyethyl)-5-methyl-3-(1-methylcyclopropyl)-6-[(2-oxoimidazolidin-1-yl)methyl]thieno[2,3-d]pyrimidine-2,4(1H,3H)-dione], the IC50 amounted to 110 nM.
Take `Cc1c(Cn2nc[nH]c2=O)sc2c1c(=O)n(C1CC1)c(=O)n2CCSC(F)(F)F` [Example 213, 3-Cyclopropyl-5-methyl-6-[(5-oxo-4,5-dihydro-1H-1,2,4-triazol-1-yl)methyl]-1-{2-[(trifluoromethyl)sulfanyl]ethyl}thieno[2,3-d]pyrimidine-2,4(1H,3H)-dione]: the IC50 came out at 40 nM.
The same measure for `Cc1c(Cn2cc[nH]c2=O)sc2c1c(=O)n(C1CC1)c(=O)n2CC1CCCO1` (single isomer, unassigned) [Example 48, 3-Cyclopropyl-5-methyl-6-[(2-oxo-2,3-dihydro-H-imidazol-1-yl)methyl]-1-(tetrahydrofuran-2-ylmethyl)thieno[2,3-d]pyrimidine-2,4(1H,3H)-dione]: 56 nM.
The result for `COC(=O)N=C1NCCN1Cc1sc2c(c1C)c(=O)n(C1CC1C)c(=O)n2CCOC(F)(F)F` (single isomer, unassigned) [Example 269, Methyl [1-({5-methyl-3-(2-methylcyclopropyl)-2,4-dioxo-1-[2-(trifluoromethoxy)ethyl]-1,2,3,4-tetrahydrothieno[2,3-d]pyrimidin-6-yl}methyl)imidazolidin-2-ylidene]carbamate] reads 2 nM.
In the case of `Cc1c(CN2CCNC2=O)sc2c1c(=O)n(C1(C)CC1)c(=O)n2CC1CC1(F)F` (racemic) [Example 63, 1-[(2,2-Difluorocyclopropyl)methyl]-5-methyl-3-(1-methylcyclopropyl)-6-[(2-oxoimidazolidin-1-yl)methyl]thieno[2,3-d]pyrimidine-2,4(1H,3H)-dione], the IC50 came out at 12 nM.
The result for `Cc1c(CN2CCNC2=O)sc2c1c(=O)n(C1CC1)c(=O)n2CCC(F)(F)F` [Example 9, 3-Cyclopropyl-5-methyl-6-[(2-oxoimidazolidin-1-yl)methyl]-1-(3,3,3-trifluoropropyl)thieno[2,3-d]pyrimidine-2,4(1H,3H)-dione] reads 1.5 nM; that for `COC(=O)N=C1NCCN1Cc1sc2c(c1C)c(=O)n(C1CCCC1)c(=O)n2CCC(F)(F)F` [Example 186, Methyl [1-{[3-cyclopentyl-5-methyl-2,4-dioxo-1-(3,3,3-trifluoropropyl)-1,2,3,4-tetrahydrothieno[2,3-d]pyrimidin-6-yl]methyl}imidazolidin-2-ylidene]carbamate], 7.9 nM; that for `Cc1c(CN2CCNC2=O)sc2c1c(=O)n(C1CC1C)c(=O)n2CCOC(F)(F)F` (single isomer, unassigned) [Example 263, 5-Methyl-3-(2-methylcyclopropyl)-6-[(2-oxoimidazolidin-1-yl)methyl]-1-[2-(trifluoromethoxy)ethyl]thieno[2,3-d]pyrimidine-2,4(1H,3H)-dione], 1.1 nM.
The same measure for `Cc1c(CN2CCNC2=O)sc2c1c(=O)n(C1CC1C)c(=O)n2C` (single isomer, unassigned) [Example 223, 1,5-Dimethyl-3-(2-methylcyclopropyl)-6-[(2-oxoimidazolidin-1-yl)methyl]thieno[2,3-d]pyrimidine-2,4(1H,3H)-dione]: 19 nM.
The same measure for `Cc1c(CN2CCNC2=O)sc2c1c(=O)n(C1CC1C)c(=O)n2CCOC(F)(F)F` (single isomer, unassigned) [Example 262, 5-Methyl-3-(2-methylcyclopropyl)-6-[(2-oxoimidazolidin-1-yl)methyl]-1-[2-(trifluoromethoxy)ethyl]thieno[2,3-d]pyrimidine-2,4(1H,3H)-dione]: 1.2 nM; for `CO[C@H]1C[C@H](n2c(=O)c3c(C)c(CN4CCNC4=NC#N)sc3n(CCC(F)(F)F)c2=O)C1` [Example 145, [1-{[3-(trans-3-Methoxycyclobutyl)-5-methyl-2,4-dioxo-1-(3,3,3-trifluoropropyl)-1,2,3,4-tetrahydrothieno[2,3-d]pyrimidin-6-yl]methyl}imidazolidin-2-ylidene]cyanamide]: 23 nM.
